One assay deals with PCB490-3 (human epithelioid sarcoma primary culture). Here is the method:
(§1)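 Roche open-access kinase inhibitor screen (223 compounds) on human epithelioid sarcoma primary cultures from three spatially distinct regions of tumor PCB490. 384-well plates, 72 h, CellTiter-Glo viability; IC50 by Hill curve fit. 100000 nM = no IC50 reached. Compound ids carry a plate-well prefix, which is stripped.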

The next assay concerns PCB490-5 (human epithelioid sarcoma primary culture). Here is the method: as §1
The test system of a further assay is PCB490-4 (human epithelioid sarcoma primary culture). As to the method:
as §1

Molecules are shown by their SMILES.

Regarding `CC(=O)N[C@@H](Cc1ccc(OP(=O)(O)O)cc1)C(=O)N[C@H]1CCC(=O)N2CCC[C@@H](C(=O)NC3CCc4ccccc43)N2C1=O` (stereo not given in full), the IC50 cell viability in the assay with PCB490-3, with PCB490-5 and with PCB490-4 was greater than 100 µM in each case.

Consider `O=[N+]([O-])c1ccc2c(c1)C(c1ccccc1Cl)=Nc1cn[nH]c1N2`, for which the IC50 cell viability in the assay on PCB490-3, with PCB490-5 and with PCB490-4 was greater than 100 µM each time.

As to `CS(=O)(=O)CCc1cccc(C(=O)c2cnn(-c3ccc(F)cc3)c2N)c1`, the IC50 cell viability in the assay with PCB490-3, in the assay with PCB490-5 and in the assay on PCB490-4 was greater than 100 µM throughout.

Consider `CNc1ncc2cc(Oc3ccc(F)cc3F)c(=O)n(C)c2n1`, for which the IC50 cell viability in the assay on PCB490-3, in the assay on PCB490-5 and in the assay with PCB490-4 was greater than 100 µM in each case.

On to `COC[C@H](N=C1NC(=O)/C(=C/c2ccc3ncccc3c2)S1)c1ccccc1`, for which the IC50 cell viability with PCB490-3, in the assay on PCB490-5 and with PCB490-4 was greater than 100 µM throughout.

Consider `O=c1c(Oc2ccc(F)cc2F)cc2cnc(NC3CCOCC3)nc2n1C1CCS(=O)(=O)CC1`, for which the IC50 cell viability in the assay on PCB490-3, with PCB490-5 and with PCB490-4 was greater than 100 µM in each case.

Regarding `C[C@@H](Cn1ncnn1)Nc1ncc2cc(Oc3ccc(F)cc3F)c(=O)n(C)c2n1`, the IC50 cell viability in the assay on PCB490-3, in the assay on PCB490-5 and in the assay with PCB490-4 was greater than 100 µM in each case.

For the molecule `Cn1cc(C2=C(c3cn(-c4ccccc4)c4ccccc34)C(=O)NC2=O)c2ccccc21`, the IC50 cell viability with PCB490-3, in the assay with PCB490-5 and in the assay on PCB490-4 was greater than 100 µM throughout.

Turning to `Cn1cc(C2=C(c3c4n(c5ccccc35)CCC(CN)CC4)C(=O)NC2=O)c2ccccc21` (stereo not given), the IC50 cell viability with PCB490-3, with PCB490-5 and with PCB490-4 was greater than 100 µM in each case.

For `COc1ccc(CCN=C2NC(=O)/C(=C/c3ccc4ncccc4c3)S2)cc1`, the IC50 cell viability in the assay on PCB490-3, with PCB490-5 and in the assay on PCB490-4 was greater than 100 µM in each case.

For `O=C1Nc2ccc(F)cc2/C1=C/c1ccc[nH]1`, the IC50 cell viability in the assay on PCB490-3, in the assay with PCB490-5 and with PCB490-4 was greater than 100 µM in each case.

Regarding `Nc1c(C(=O)c2ccc(CCCN3CCOCC3)cc2)cnn1-c1ccc(F)cc1`, the IC50 cell viability in the assay on PCB490-3, in the assay on PCB490-5 and in the assay on PCB490-4 was greater than 100 µM in each case.

`Cc1ccccc1C1=C(c2cn(C)c3ccccc23)C(=O)NC1=O`: the IC50 cell viability with PCB490-3, in the assay on PCB490-5 and in the assay on PCB490-4 was greater than 100 µM in each case.

Take `Cn1cc(C2=C(c3cn(CCCCCN)c4ccccc34)C(=O)NC2=O)c2ccccc21`: the IC50 cell viability in the assay on PCB490-3, with PCB490-5 and with PCB490-4 was greater than 100 µM in each case.

Turning to `CCn1c(=O)c(Oc2ccc(F)cc2F)cc2cnc(NC3CCOCC3)nc21`, the IC50 cell viability in the assay with PCB490-3, in the assay with PCB490-5 and in the assay on PCB490-4 was greater than 100 µM throughout.

For the molecule `Cn1cc(C2=C(N3CCOCC3)C(=O)NC2=O)c2ccccc21`, the IC50 cell viability in the assay on PCB490-3, in the assay on PCB490-5 and in the assay on PCB490-4 was greater than 100 µM in each case.

On to `Cn1cc(C2=C(c3c([S+](C)[O-])n(C)c4ccccc34)C(=O)NC2=O)c2ccccc21` (stereo not given), for which the IC50 cell viability with PCB490-3, in the assay with PCB490-5 and in the assay on PCB490-4 was greater than 100 µM each time.

On to `Cn1cc(C2=C(c3c4n(c5ccccc35)CCN(C(N)=S)C4)C(=O)NC2=O)c2ccccc21`, for which the IC50 cell viability with PCB490-3, with PCB490-5 and in the assay with PCB490-4 was greater than 100 µM throughout.

Regarding `O=C1NC(=NCc2ccccc2Cl)S/C1=C\c1ccc2ncccc2c1`, the IC50 cell viability in the assay on PCB490-3, with PCB490-5 and in the assay on PCB490-4 was greater than 100 µM throughout.

`O=C1NC(=NCC(CO)c2ccccc2)S/C1=C\c1ccc2ncccc2c1` (stereo not given): the IC50 cell viability in the assay on PCB490-3, with PCB490-5 and in the assay with PCB490-4 was greater than 100 µM throughout.

With `Cc1[nH]n(-c2ccccc2)c(=O)c1C(=O)c1ccccc1`, the IC50 cell viability with PCB490-3, in the assay with PCB490-5 and in the assay on PCB490-4 was greater than 100 µM each time.

Consider `Nc1c(C(=O)c2ccccc2)cnn1-c1ccc(F)cc1`, for which the IC50 cell viability with PCB490-3, in the assay with PCB490-5 and in the assay with PCB490-4 was greater than 100 µM in each case.

`Cc1nc2sc3c(N)ncnc3c2c(C)c1C`: the IC50 cell viability with PCB490-3, in the assay on PCB490-5 and in the assay with PCB490-4 was greater than 100 µM in each case.

As to `CCCCCNC(=O)[C@@H]1CCCN2C(=O)CC[C@H](NC(=O)[C@H](Cc3ccc(OP(=O)(O)O)cc3)NC(C)=O)C(=O)N12`, the IC50 cell viability in the assay on PCB490-3, in the assay on PCB490-5 and in the assay with PCB490-4 was greater than 100 µM in each case.

`Cn1cc(C2=C(c3ccccc3[N+](=O)[O-])C(=O)NC2=O)c2ccccc21`: the IC50 cell viability in the assay with PCB490-3, in the assay with PCB490-5 and in the assay with PCB490-4 was greater than 100 µM in each case.

Regarding `Cn1c(=O)c(Cc2ccc(F)cc2F)cc2cnc(NC3CCOCC3)nc21`, the IC50 cell viability in the assay on PCB490-3, in the assay on PCB490-5 and in the assay with PCB490-4 was greater than 100 µM in each case.

On to `Cn1c(=O)c(Oc2ccc(F)cc2F)cc2cnc(NC3CCS(=O)(=O)CC3)nc21`, for which the IC50 cell viability in the assay on PCB490-3, in the assay on PCB490-5 and in the assay on PCB490-4 was greater than 100 µM each time.

`Cn1cc(C2=C(c3cccc(NCC(O)CO)c3)C(=O)NC2=O)c2cc(Cl)ccc21` (stereo not given): the IC50 cell viability was greater than 100 µM with PCB490-3, 2.34 µM in the assay on PCB490-5 and 2 µM with PCB490-4.

Regarding `Cn1cc(C2=C(Sc3ccccc3)C(=O)NC2=O)c2ccccc21`, the IC50 cell viability in the assay with PCB490-3, in the assay on PCB490-5 and with PCB490-4 was greater than 100 µM in each case.

Turning to `Nc1[nH]nc2nc(-c3cccs3)cc(C(F)(F)F)c12`, the IC50 cell viability with PCB490-3, with PCB490-5 and in the assay with PCB490-4 was greater than 100 µM in each case.

Take `COc1cccc(F)c1C(=O)c1cnc(NC2CCN(S(C)(=O)=O)CC2)nc1N`: the IC50 cell viability in the assay on PCB490-3, in the assay with PCB490-5 and in the assay with PCB490-4 was greater than 100 µM throughout.

Take `Cn1cc(C2=C(c3cccc(Cl)c3)C(=O)NC2=O)c2ccccc21`: the IC50 cell viability in the assay with PCB490-3, in the assay on PCB490-5 and in the assay with PCB490-4 was greater than 100 µM in each case.

Take `Nc1c(C(=O)c2cccc(OCCN3CCOCC3)c2)cnn1-c1ccc(F)cc1`: the IC50 cell viability in the assay with PCB490-3, in the assay with PCB490-5 and in the assay with PCB490-4 was greater than 100 µM in each case.

Turning to `O=C1OC(=O)C(c2c[nH]c3ccccc23)=C1c1c[nH]c2ccccc12`, the IC50 cell viability with PCB490-3, in the assay on PCB490-5 and in the assay on PCB490-4 was greater than 100 µM throughout.

On to `Cn1cc(C2=C(c3cn(CCCCN)c4ccccc34)C(=O)NC2=O)c2ccccc21`, for which the IC50 cell viability in the assay on PCB490-3, in the assay on PCB490-5 and in the assay on PCB490-4 was greater than 100 µM each time.

For the origin of these results see the supplement of paper PMC6580486.
